The Km is the concentration of substrate that gives half-maximal velocity.

Assay type in all cases: biochemical
Test [1] addresses T1, TreS/Pep2 (Pseudomonas aeruginosa, UniProt Q9I1W3).
T1 construct: gene PA2152; natural TreS-Pep2 fusion; synthetic codon-optimised gene, N-terminal 6xHis-tag with TEV site, E. coli BL21(DE3), Ni and S200 columns
T1 sequence (Q9I1W3 1-1100): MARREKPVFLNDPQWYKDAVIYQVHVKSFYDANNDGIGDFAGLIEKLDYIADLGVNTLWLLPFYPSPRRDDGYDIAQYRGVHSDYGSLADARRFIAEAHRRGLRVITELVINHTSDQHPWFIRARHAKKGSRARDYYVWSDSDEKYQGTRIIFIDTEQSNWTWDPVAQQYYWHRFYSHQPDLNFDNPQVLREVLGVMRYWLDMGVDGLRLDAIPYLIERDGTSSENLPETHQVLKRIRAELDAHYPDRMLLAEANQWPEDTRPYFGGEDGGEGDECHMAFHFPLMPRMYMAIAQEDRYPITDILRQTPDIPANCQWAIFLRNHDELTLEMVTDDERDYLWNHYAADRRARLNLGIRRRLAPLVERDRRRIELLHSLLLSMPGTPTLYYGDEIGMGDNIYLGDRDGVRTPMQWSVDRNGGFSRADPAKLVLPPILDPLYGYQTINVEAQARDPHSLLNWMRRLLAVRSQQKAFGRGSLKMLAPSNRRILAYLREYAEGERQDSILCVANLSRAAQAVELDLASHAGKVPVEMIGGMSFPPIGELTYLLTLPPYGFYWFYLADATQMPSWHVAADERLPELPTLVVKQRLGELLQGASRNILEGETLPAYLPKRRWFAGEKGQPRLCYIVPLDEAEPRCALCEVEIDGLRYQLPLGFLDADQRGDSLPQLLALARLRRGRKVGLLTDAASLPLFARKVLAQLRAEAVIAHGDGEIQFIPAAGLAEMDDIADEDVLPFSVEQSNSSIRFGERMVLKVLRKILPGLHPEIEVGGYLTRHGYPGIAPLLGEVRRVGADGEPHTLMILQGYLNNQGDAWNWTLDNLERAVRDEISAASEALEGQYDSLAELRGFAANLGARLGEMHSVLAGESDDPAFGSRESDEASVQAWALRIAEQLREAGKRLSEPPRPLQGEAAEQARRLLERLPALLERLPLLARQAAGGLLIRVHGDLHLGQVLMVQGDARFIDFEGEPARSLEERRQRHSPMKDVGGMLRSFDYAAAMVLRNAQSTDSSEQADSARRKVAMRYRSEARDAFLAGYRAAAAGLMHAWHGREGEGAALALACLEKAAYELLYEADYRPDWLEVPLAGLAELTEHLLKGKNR
The test can be described thus: TreS activity coupled to Pep2 maltokinase ADP-release assay. As to conditions: trehalose isomerisation (TreS domain); ATP, 5 mM MgCl2, pH 8.0, 21 °C.

For test [2], the target named is T1, TreS/Pep2. The test can be described thus: coupled spectrophotometric ADP-release assay (PK/LDH), global fit. To be noted: maltokinase (Pep2 domain); ATP varied, 5 mM MgCl2, pH 8.0, 21 °C; KiB term of random order ternary complex model (substrate dissociation constant), not an inhibition constant.
The target of test [3] is T2, MalQ (Pseudomonas aeruginosa, UniProt Q9I1V2).
T2 construct: gene PA2163; recombinant, N-terminal 6xHis-tag (pET101), E. coli SoluBL21, HisTrap
T2 sequence (Q9I1V2 1-684): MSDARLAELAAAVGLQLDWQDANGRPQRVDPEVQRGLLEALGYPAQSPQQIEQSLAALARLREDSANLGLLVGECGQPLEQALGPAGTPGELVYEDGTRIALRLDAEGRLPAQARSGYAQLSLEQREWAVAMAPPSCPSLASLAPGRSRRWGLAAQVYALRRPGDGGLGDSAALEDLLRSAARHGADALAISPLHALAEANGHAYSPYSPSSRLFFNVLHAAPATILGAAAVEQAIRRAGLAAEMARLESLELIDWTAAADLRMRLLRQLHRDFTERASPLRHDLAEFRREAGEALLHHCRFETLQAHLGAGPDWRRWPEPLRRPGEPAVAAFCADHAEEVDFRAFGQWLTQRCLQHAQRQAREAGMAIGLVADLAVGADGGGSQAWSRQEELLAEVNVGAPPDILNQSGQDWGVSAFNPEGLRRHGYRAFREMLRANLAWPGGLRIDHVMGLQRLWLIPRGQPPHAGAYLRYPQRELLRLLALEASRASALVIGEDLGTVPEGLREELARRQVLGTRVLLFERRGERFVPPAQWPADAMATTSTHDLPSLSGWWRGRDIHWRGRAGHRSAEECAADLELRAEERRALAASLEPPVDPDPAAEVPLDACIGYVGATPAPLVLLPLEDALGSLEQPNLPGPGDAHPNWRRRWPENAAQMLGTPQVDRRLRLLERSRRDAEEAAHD
The test can be described thus: MALDI-TOF MS. As to conditions: 1 mM substrate; disproportionation.

SMILES strings stand for the structures. A value given as a limit tells only on which side of the number the result lay.

As to `OC[C@H]1O[C@H](O[C@H]2O[C@H](CO)[C@@H](O)[C@H](O)[C@H]2O)[C@H](O)[C@@H](O)[C@@H]1O` [trehalose], in test [1], the Michaelis-Menten constant (Km) was greater than 100 mM.
Consider `OC[C@H]1O[C@H](O[C@H]2[C@H](O)[C@@H](O)C(O)O[C@@H]2CO)[C@H](O)[C@@H](O)[C@@H]1O` (stereo partly drawn) [maltose], for which the “Ki^Mal” value in test [2] turned out to be 550 ± 130 µM. Moreover, the “MALDI-TOF MS” value in test [3] is “We therefore incubated MalQ with maltose”.
